Test results from patent US10294202B2, “Pyrrolidinones as herbicides” (FMC Corporation, priority 2013, dated 2019).

Legend:
blackgrass = assay: Test A postemergence herbicide test; assay type: in vivo, Alopecurus myosuroides
Procedure, shortened: (§1)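 Visual injury rating, 0 (no effect) to 100 (complete control), versus untreated controls ~10 days after treatment. Postemergence spray applied at one- to two-leaf stage, plants 2–10 cm tall, potted in loam soil/sand. Greenhouse-held.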

ryegrass, Italian = assay: Test A pre-/postemergence herbicide test; assay type: in vivo, Lolium multiflorum; conditions: for Plant response rating, Ryegrass, Italian: 125 g ai/ha; for Ryegrass, Italian plant response rating: 500 g ai/ha
Procedure, shortened: (§2)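 Both application timings used compounds in a non-phytotoxic solvent plus surfactant. Pre-emergence: soil sprayed directly after seeding into loam/sand. Post-emergence: foliage of 2–10 cm seedlings (1–2 leaves) sprayed. Injury rated ~10 days later, 0–100.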

ragweed = assay: Test A pre-/postemergence herbicide test; assay type: in vivo, Ambrosia elatior; conditions: for Plant response rating, Ragweed: 125 g ai/ha; for Ragweed plant response rating: 500 g ai/ha
Procedure, shortened: as §2

barnyardgrass [1] = assay: Test A pre-/postemergence herbicide test; assay type: in vivo, Echinochloa crus-galli
Procedure, shortened: as §2

kochia = assay: Test A pre-/postemergence herbicide test; assay type: in vivo, Kochia scoparia; conditions: for Plant response rating, Kochia: 125 g ai/ha; for Kochia plant response rating: 500 g ai/ha
Procedure, shortened: as §2

ducksalad = assay: Test B flooded paddy test; assay type: in vivo, Heteranthera limosa; conditions: 500 g ai/ha, Flood; scale of 0 to 100 where 0 is no effect and 100 is complete control
Procedure, shortened: (§3)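 Paddy-water application at a 3 cm flood, young plants having two leaves. Water level maintained; greenhouse, 13–15 days; visual 0–100 control rating.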

pigweed = assay: Test A pre-/postemergence herbicide test; assay type: in vivo, Amaranthus retroflexus; conditions: for Plant response rating, Pigweed: 125 g ai/ha; for Pigweed plant response rating: 500 g ai/ha
Procedure, shortened: as §2

galium = assay: Test A postemergence herbicide test; assay type: in vivo, Galium aparine; conditions: 125 g ai/ha, visual rating on 0 to 100 scale (0 no effect, 100 complete control), approx. 10 days
Procedure, shortened: as §1

corn = assay: Test A pre-/postemergence herbicide test; assay type: in vivo, Zea mays; conditions: Postemergence
Procedure, shortened: as §2

rice = assay: Test B flooded paddy test; assay type: in vivo, Oryza sativa; conditions: 500 g ai/ha, Flood; scale of 0 to 100 where 0 is no effect and 100 is complete control
Procedure, shortened: as §3

giant foxtail = assay: Test A pre-/postemergence herbicide test; assay type: in vivo, Setaria faberii
Procedure, shortened: as §2

wheat = assay: Test A pre-/postemergence herbicide test; assay type: in vivo, Triticum aestivum; conditions: Postemergence, 125 g ai/ha; visual rating on 0 to 100 scale (0 no effect, 100 complete control), approx. 10 days
Procedure, shortened: as §2

sedge, umbrella = assay: Test B flooded paddy test; assay type: in vivo, Cyperus difformis; conditions: 500 g ai/ha, Flood; scale of 0 to 100 where 0 is no effect and 100 is complete control
Procedure, shortened: as §3

barnyardgrass [2] = assay: Test B flooded paddy test; assay type: in vivo, Echinochloa crus-galli; conditions: 500 g ai/ha, Flood; scale of 0 to 100 where 0 is no effect and 100 is complete control
Procedure, shortened: as §3

[3] = 125 g ai/ha, visual rating on 0 to 100 scale (0 no effect, 100 complete control), approx. 10 days
[4] = 500 g ai/ha, 0 to 100 scale (0 no effect, 100 complete control)
[5] = Postemergence, visual rating on 0 to 100 scale (0 no effect, 100 complete control), approx. 10 days
[6] = Preemergence, 0 to 100 scale where 0 is no effect and 100 is complete control
[7] = Preemergence, visual rating on 0 to 100 scale (0 no effect, 100 complete control)
[8] = Postemergence, 125 g ai/ha, visual rating on 0 to 100 scale (0 no effect, 100 complete control), approx. 10 days
[9] = Postemergence, 500 g ai/ha, 0 to 100 scale (0 no effect, 100 complete control)
[10] = Preemergence, 125 g ai/ha, 0 to 100 scale where 0 is no effect and 100 is complete control
[11] = Preemergence, 500 g ai/ha, visual rating on 0 to 100 scale (0 no effect, 100 complete control)

Row | Structure (SMILES) | Plant response rating, Blackgrass (blackgrass; [3]) | Plant response rating, Blackgrass (blackgrass; [4]) | Plant response rating, Ryegrass, Italian (ryegrass, Italian; [5]) | Plant response rating, Ryegrass, Italian (ryegrass, Italian; [6]) | Ryegrass, Italian plant response rating (ryegrass, Italian; [7]) | Plant response rating, Ragweed (ragweed; [5]) | Ragweed plant response rating (ragweed; [7]) | Plant response rating, Barnyardgrass (barnyardgrass [1]; [8]) | Plant response rating, Barnyardgrass (barnyardgrass [1]; [9]) | Plant response rating, Barnyardgrass (barnyardgrass [1]; [10]) | Barnyardgrass plant response rating (barnyardgrass [1]; [11]) | Plant response rating, Kochia (kochia; [5]) | Plant response rating, Kochia (kochia; [6]) | Kochia plant response rating (kochia; [7]) | Plant response rating, Ducksalad (ducksalad) | Plant response rating, Pigweed (pigweed; [5]) | Plant response rating, Pigweed (pigweed; [6]) | Pigweed plant response rating (pigweed; [7]) | Plant response rating, Galium (galium) | Plant response rating, Corn (corn; [3]) | further results
1 | O=C1NCC(c2ccc(Br)c(Br)c2)C1C(=O)Nc1cccc(F)c1F (centres unmarked) [Compound 341] | 0 | 0 | 0 | 0 | 0 | 0 | 0 | 30 | 50 | 50 | 80 | 0 | 0 | 0 | 0 | 0 | 0 | 0 | 0 | 0 | Plant response rating, Ragweed (ragweed; [6]): 0; Plant response rating, Corn (corn; [4]): 30; Plant response rating, Rice (rice): 0; Plant response rating, Foxtail, Giant (giant foxtail; [8]): 50; Plant response rating, Foxtail, Giant (giant foxtail; [9]): 70; Plant response rating, Foxtail, Giant (giant foxtail; [10]): 80; Foxtail, Giant plant response rating (giant foxtail; [11]): 90; Plant response rating, Wheat (wheat): 0; Plant response rating, Sedge, Umbrella (sedge, umbrella): 0; Plant response rating, Barnyardgrass (barnyardgrass [2]): 0
2 | O=C1NCC(c2ccc(OC(F)F)cc2)C1C(=O)Nc1ccccc1C(F)(F)F (centres unmarked) [Compound 348] | 20 | 30 | 0 | 0 | 0 | 0 | 30 | 20 | 50 | 30 | 60 | 20 | 0 | 70 | 100 | 0 | 20 | 50 | 0 | 0 | Plant response rating, Corn (corn; [4]): 0; Plant response rating, Rice (rice): 0; Plant response rating, Foxtail, Giant (giant foxtail; [8]): 70; Plant response rating, Foxtail, Giant (giant foxtail; [9]): 90; Plant response rating, Foxtail, Giant (giant foxtail; [10]): 90; Foxtail, Giant plant response rating (giant foxtail; [11]): 90; Plant response rating, Wheat (wheat): 0; Plant response rating, Sedge, Umbrella (sedge, umbrella): 0; Plant response rating, Barnyardgrass (barnyardgrass [2]): 40
3 | O=C1NCC(c2ccc(OC(F)F)cc2)C1C(=O)Nc1ccccc1F (centres unmarked) [Compound 349] | 20 | 40 | 0 | 0 | 0 | 0 | 40 | 80 | 90 | 70 | 90 | 40 | 50 | 80 | 90 | 0 | 0 | 40 | 20 | 0 | Plant response rating, Ragweed (ragweed; [6]): 0; Plant response rating, Corn (corn; [4]): 20; Plant response rating, Rice (rice): 0; Plant response rating, Foxtail, Giant (giant foxtail; [8]): 60; Plant response rating, Foxtail, Giant (giant foxtail; [9]): 90; Plant response rating, Foxtail, Giant (giant foxtail; [10]): 80; Foxtail, Giant plant response rating (giant foxtail; [11]): 90; Plant response rating, Wheat (wheat): 0; Plant response rating, Sedge, Umbrella (sedge, umbrella): 0; Plant response rating, Barnyardgrass (barnyardgrass [2]): 40
